The experiment relates to SH-SY5Y cells. Put plainly: HN-induced intracellular humanin expression, western blot, SH-SY5Y. It counts as cell-based, human. The settings on record: HN treatment 24 h, several doses, basal humanin undetectable. The procedure: The SH-SY5Y human neuroblastoma cell line and PC12 rat pheochromocytoma cell line were purchased from the Korean Cell Line Bank (Seoul, South Korea). Undifferentiated SH-SY5Y cells were grown in Dulbecco's modified Eagle's medium nutrient mixture F-12 (DMEM/F12; Thermo Fisher Scientific) supplemented with 10% FBS and 1% P/S. Undifferentiated PC12 cells were grown in DMEM (Thermo Fisher Scientific) supplemented with 5% FBS, 5% horse serum, and 1% P/S on poly-D-lysine (PDL, Sigma-Aldrich) plates.
For HN treatment of cells, HN stock solution was first incubated at 37 ℃ with mild stirring for 0.5 h. The solution was then added to the culture medium to achieve a desirable final concentration as described above.
Mouse brain tissue samples and cells were homogenized in radioimmunoprecipitation assay (RIPA) buffer (Cell Signaling, Danvers, MA, USA) in the presence of a protease and phosphatase inhibitor cocktail (Thermo Fisher Scientific). The samples were sonicated on ice, and the supernatant was collected after centrifugation at 4°C at 10,000 g for 5 min. The protein samples were loaded and separated using Tris-glycine SDS-PAGE. To detect the HN peptide, the proteins were separated into three layers of tricine SDS-PAGE, as previously described. […] The results were analyzed using the ImageJ densitometry system. […]

Take “humanin (MAPRGFSCLLLLTSEIDLPVKRRA; Humanin; UniProt Q8IVG9 1-24, looked up) [HN, mitochondria-derived peptide encoded by the mitochondrial genome, synthesized by Fmoc-based SPPS at GL Biochem]”: the intracellular humanin expression entry was “induced its intracellular expression in a dose-dependent manner”.

These data come from publication PMC10283052, “Intranasal delivery of mitochondrial protein humanin rescues cell death and promotes mitochondrial function in Parkinson's disease” (Theranostics, 2023).
